Source: EP2718307B1, “BETA-HAIRPIN PEPTIDOMIMETICS AS CXC4 ANTAGONISTS” (Polyphor AG, priority 2011, dated 2012)
Bridge positions count the residues as written; N and C are the ends. Square brackets hold non-standard residues; d marks the D form. Peptide text beside a SMILES is read from it. Lys(iPr) = CC(C)NCCCC[C@H](N)C(=O)O; Orn(iPr) = CC(C)NCCC[C@H](N)C(=O)O

Test system: HSC mobilization
Test: HSC mobilization in mouse (time-response and dose-response study, CFU-C assay)
Type: in vivo, Male C57BI/6 mice
Conditions: for time of maximum mobilization: from time-response study; for ED50: sigmoidal fit of doses 1.5, 5 and 15 mg/kg i.p., maximum constrained to 4000 CFU/mL, ED50 corresponds to 2000 CFU/mL
Procedure: For the compounds of Ex. 1 and Ex. 2 a HSC mobilization study was performed consisting of a time-response study to assess the time of maximum mobilization after dosing and a subsequent dose-response study.
Male C57BI/6 mice (Janvier, France; n = 5 for Ex. 1, n = 3 for Ex. 2) received bolus i.p. injections of Ex. 1 and Ex. 2, respectively, (5 mg/kg) dissolved in 10 µL of water per g mouse weight containing 0.9% NaCl. Blood was withdrawn from the cheek pouch into EDTA coated tubes for the time points 0, 0.5, 1, 2, 4, 6 and 8 hrs after administration. The colony forming unit in culture counts (CFU-C counts) were determined by performing a CFU-C assay as described below.
Male C57BI/6 mice (Janvier, France; n = 5 per dose group for Ex. 1, n = 3 per dose group for Ex. 2) received bolus i.p. injections of Ex. 1 and Ex. 2, respectively, at doses of 0.5, 1.5, 5 and 15 mg/kg (compound dissolved in 10 µL of water per g mouse weight containing 0.9% NaCl). Blood was collected as described above at the time of maximum mobilization for Ex. 1 (4 h) and Ex. 2 (2 h), respectively.
CFU-C counts were determined by culturing aliquots of lysed peripheral blood in standard semi-solid progenitor cell culture medium. In brief, a defined amount of blood was washed with PBS buffer (Gibco®) containing 0.5% bovine serum albumin, followed by red blood cell lysis in hypotonic NH4Cl buffer (Sigma) and a second wash step. The cell pellet was resuspended in DMEM (Gibco®) containing 10% FCS, suspended in 2 mL of commercially available, cytokine-replete methylcellulose medium for murine cells (Cell Systems, USA), and plated in duplicate into 35 mm cell culture dishes. CFU-C were scored after 7-8 days incubation under standard conditions (20% O2, saturated humidity, 5% CO2, 37 °C). Peripheral blood cellularity was analyzed using an automated blood count machine (Drew Scientific).
Considering the curve progressions of both compounds the dose-responses are constrained to a maximum response of 4000 CFU/mL. The ED50-values indicated in Table 9 are therefore corresponding to a response of 2000 CFU/mL.

[1] = time-response study, 5 mg/kg bolus i.p., 0.5 h after administration
[2] = time-response study, 5 mg/kg bolus i.p., 1 h after administration
[3] = time-response study, 5 mg/kg bolus i.p., 2 h after administration
[4] = time-response study, 5 mg/kg bolus i.p., 4 h after administration
[5] = time-response study, 5 mg/kg bolus i.p., 6 h after administration
[6] = time-response study, 5 mg/kg bolus i.p., 8 h after administration

SMILES	CFU/mL ± SD (dose-response study, 0.5 mg/kg bolus i.p., blood collected at 4 h)	CFU/mL ± SD (dose-response study, 1.5 mg/kg bolus i.p., blood collected at 4 h)	CFU/mL ± SD (dose-response study, 5 mg/kg bolus i.p., blood collected at 4 h)	CFU/mL ± SD (dose-response study, 15 mg/kg bolus i.p., blood collected at 4 h)	time of maximum mobilization (5 mg/kg bolus i.p.)	ED50	CFU/mL ± SD [1]	CFU/mL ± SD [2]	CFU/mL ± SD [3]	CFU/mL ± SD [4]	CFU/mL ± SD [5]	CFU/mL ± SD [6]	CFU/mL ± SD (dose-response study, 1.5 mg/kg bolus i.p., blood collected at 2 h)	CFU/mL ± SD (dose-response study, 5 mg/kg bolus i.p., blood collected at 2 h)	CFU/mL ± SD (dose-response study, 15 mg/kg bolus i.p., blood collected at 2 h)
CC(C)NCCCC[C@@H]1NC(=O)[C@H](CCC(N)=O)NC(=O)[C@H](Cc2ccc(O)cc2)NC(=O)[C@@H]2CSSC[C@H](NC(=O)[C@H](Cc3ccc(O)cc3)NC(=O)[C@H](Cc3c[nH]cn3)NC(=O)[C@H](Cc3ccc(O)cc3)NC(=O)[C@@H]3CCCN3C(=O)[C@H]3CCCN3C1=O)C(=O)N[C@@H](CO)C(=O)N[C@@H](C)C(=O)N1CCC[C@@H]1C(=O)N[C@@H](CCCNC(C)C)C(=O)N[C@@H](CCCNC(=N)N)C(=O)N[C@@H](Cc1ccc(O)cc1)C(=O)N2 [Ex. 1, cyclo(-Tyr^1-His^2-Tyr^3-Cys^4-Ser^5-Ala^6-^DPro^7-Orn(iPr)^8-Arg^9-Tyr^10-Cys^11-Tyr^12-Gln^13-Lys(iPr)^14-^DPro^15-Pro^16-), disulfide bond between Cys^4 and Cys^11] (cyclo(YHYCSA[dP][Orn(iPr)]RYCYQ[Lys(iPr)][dP]P); disulfide 4-11)	974 ± 57 CFU/mL	1672 ± 233 CFU/mL	3325 ± 310 CFU/mL	3289 ± 431 CFU/mL	4 h	1.76 mg/kg	511 ± 85 CFU/mL	2208 ± 262 CFU/mL	2592 ± 450 CFU/mL	3109 ± 537 CFU/mL	1857 ± 281 CFU/mL	588 ± 161 CFU/mL	–	–	–
COc1ccc(C[C@@H]2NC(=O)[C@H](Cc3c[nH]cn3)NC(=O)[C@H](Cc3ccc(O)cc3)NC(=O)[C@@H]3CCCN3C(=O)[C@H]3CCCN3C(=O)[C@H](CCCCNC(C)C)NC(=O)[C@H](CCC(N)=O)NC(=O)[C@H](Cc3ccc(O)cc3)NC(=O)[C@@H]3CSSC[C@H](NC2=O)C(=O)N[C@@H](CO)C(=O)N[C@@H](C)C(=O)N2CCC[C@@H]2C(=O)N[C@@H](CCCNC(C)C)C(=O)N[C@@H](CCCNC(=N)N)C(=O)N[C@@H](Cc2ccc(O)cc2)C(=O)N3)cc1 [Ex. 2, cyclo(-Tyr^1-His^2-Tyr(Me)^3-Cys^4-Ser^5-Ala^6-^DPro^7-Orn(iPr)^8-Arg^9-Tyr^10-Cys^11-Tyr^12-Gln^13-Lys(iPr)^14-^DPro^15-Pro^16-), disulfide bond between Cys^4 and Cys^11] (cyclo(YHY(Me)CSA[dP][Orn(iPr)]RYCYQ[Lys(iPr)][dP]P); disulfide 4-11)	–	–	–	–	2 h	2.38 mg/kg	839 ± 148 CFU/mL	1020 ± 262 CFU/mL	2894 ± 329 CFU/mL	1929 ± 643 CFU/mL	1164 ± 151 CFU/mL	373 ± 96 CFU/mL	1314 ± 463 CFU/mL	2894 ± 329 CFU/mL	3589 ± 576 CFU/mL
